What all share (type): cell-based
Data set [1] has as its system MDA-MB-231 breast cancer cells. In words: clonogenic assay (colony formation), MDA-MB-231. The note with it: Homo sapiens, 336 h; MDA-MB-231, 10 μM analogs, 14 days; read-out: Effect on cell proliferation (colony formation) (% of vehicle control). The protocol: To determine if these analogs have anti-migration and anti-invasion activities in different cancer cell lines, transwell migration assays were performed using MDA-MB-231 breast cancer cells (FIG. 3) and HeLa cells (FIG. 5) for all synthetic analogs. […] Next, clonogenic assays were performed on the breast cancer cells treated with the compounds to rule out any indirect effect on cell migration due to cytotoxicity (FIG. 4). MDA-MB-231 cells were allowed to grow for 14 days in six-well plates in the presence or absence of the synthetic compounds at 10 μM.
To rule out any indirect effect on cell migration due to cytotoxicity, clonogenic assays were performed on the breast cancer cells treated with the compounds. MDA-MB-231 cells were allowed to grow for 14 days in six-well plates in the presence or absence of the synthetic compounds at 10 μM. […] For example, analog 3g blocked both cell migration (81.4%) and colony formation (42.7%). For these analogs cytotoxity may have partially contributed to their overall anti-migration effect. The cell toxicity data for all analogs are listed in Table 1 along with anti-migration data for comparison.

Data set [2] is described as follows: cytotoxicity of additional thiazole compounds (Table 3). The note with it: cell line not given. From the text: (§1) The additional thiazole compounds were synthesized and tested for antimigration efficacy and cytotoxicity, with results shown in TABLE 3.
Data set [3] is described as follows: antimigration efficacy of additional thiazole compounds (Table 3). The note with it: cell line not given; read-out: IC50 (anti-migration).
From the text: as §1

The structures appear in SMILES notation.

As to `Nc1nc(-c2ccccc2)cs1` [Compound 2a, 2-Amino-4-phenylthiazole], in data set [1], the activity at 10 µM worked out at 104%.
Consider `O=C(Nc1nc(-c2ccccc2)cs1)c1ccco1` [Compound 3b, N-(4-Phenylthiazol-2-yl)furan-2-carboxamide], for which, in data set [1], the activity at 10 µM came out at 98.8%.
With `O=C(Nc1nc(-c2ccccc2)cs1)c1ccc(Cl)cc1` [Compound 3c, 4-Chloro-N-(4-phenylthiazol-2-yl)benzamide], the activity at 10 µM in data set [1] came to 95%.
With `O=C(Nc1nc(-c2ccccc2)cs1)c1ccc(Br)cc1` [Compound 3d, 4-Bromo-N-(4-phenylthiazol-2-yl)benzamide], in data set [1], the activity at 10 µM is 98.6%.
On to `COc1cc(C(=O)Nc2nc(-c3ccccc3)cs2)cc(OC)c1OC` [Compound 3e, 3,4,5-Trimethoxy-N-(4-phenylthiazol-2-yl)benzamide], for which the activity at 10 µM in data set [1] turned out to be 80.9%.
With `Cc1ccc(-c2csc(NC(=O)c3cccs3)n2)c(C)c1` [Compound 3f, N-(4-(2,4-Dimethylphenyl)thiazol-2-yl)thiophene-2-carboxamide], the activity at 10 µM in data set [1] turned out to be 67.5%.
For `O=C(Nc1nc(-c2ccccc2)cs1)c1cccnc1` [Compound 3h, N-(4-Phenylthiazol-2-yl)nicotinamide], the activity at 10 µM in data set [1] was found to be 103%.
Consider `O=C(Nc1nc(-c2ccccc2)cs1)C1CCCC1` [Compound 3k, N-(4-Phenylthiazol-2-yl)cyclopentanecarboxamide], for which, in data set [1], the activity at 10 µM is 99.8%.
As for `O=C(Nc1nc(-c2ccccc2)cs1)C1CCCCC1` [Compound 3l, N-(4-Phenylthiazol-2-yl)cyclohexanecarboxamide], the activity at 10 µM in data set [1] is 103%.
On the same count and under the same terms, the same measure for `CCCCCC(=O)Nc1nc(-c2ccccc2)cs1` [Compound 3m, N-(4-Phenylthiazol-2-yl)hexanamide]: 90.7%; for `CN(C(=O)c1ccc(Br)cc1)c1nc(-c2ccccc2)cs1` [Compound 4a, 4-Bromo-N-methyl-N-(4-phenylthiazol-2-yl)benzamide]: 108%.
Regarding `Cc1ccc(-c2csc(N(C)C(=O)c3cccs3)n2)c(C)c1` [Compound 4b, N-(4-(2,4-dimethylphenyl)thiazol-2-yl)-N-methylthiophene-2-carboxamide], the activity at 10 µM in data set [1] was found to be 97.7%.
Turning to `COc1ccc(C(=O)N(C)c2nc(-c3ccccc3)cs2)cc1OC` [Compound 4c, 3,4-Dimethoxy-N-methyl-N-(4-phenylthiazol-2-yl)benzamide], the activity at 10 µM in data set [1] stood at 97.1%.
Take `Cn1c(-c2cccc(Cl)c2)csc1=NC(=O)c1ccccc1` [Compound 15e, N-(4-(3-Chlorophenyl)-3-methylthiazol-2(3H)-ylidene)benzamide]: the “Cytotoxicity (Survival at 1 μM)” value in data set [2] amounted to 35.2%. Also, the IC50 in data set [3] worked out at 0.367 µM.
On to `Cn1c(-c2cc(C(F)(F)F)cc(C(F)(F)F)c2)csc1=NC(=O)c1ccccc1` [Compound 15f, N-(4-(3,5-Bis(trifluoromethyl)phenyl)-3-methylthiazol-2(3H)-ylidene)benzamide], for which, in data set [2], the “Cytotoxicity (Survival at 1 μM)” value stood at 79.8%. For the same molecule, the IC50 in data set [3] was determined as 0.096 µM.
The matching figures for `COc1cc(-c2cs/c(=N/C(=O)c3ccccc3)n2C)cc(OC)c1OC` [Compound 15g, N-(4-(3,4,5-Trimethoxyphenyl)-3-methylthiazol-2(3H)-yliene)-benzamide]: 88.4% and 1.07 µM.
`Cc1sc(=NC(=O)c2ccccc2)n(C)c1-c1ccccc1` [Compound 15h, N-(3,5-Dimethyl-4-phenylthiazol-2(3H)-ylidene)benzamide]: in data set [2], the “Cytotoxicity (Survival at 1 μM)” value is recorded as 68.4%. Further, the IC50 in data set [3] was 0.197 µM.
For the molecule `Cc1sc(=NC(=O)c2ccccc2)n(C)c1-c1ccc(F)cc1` [Compound 15i, N-(4-(4-Fluorophenyl)-3,5-dimethylthiazol-2(3H)-ylidene)benzamide], the “Cytotoxicity (Survival at 1 μM)” value in data set [2] turned out to be 83.8%. Also, in data set [3], the IC50 is 0.847 µM.
The matching figures for `Cc1ccc(-c2cn(C)/c(=N\C(=O)c3ccccc3)s2)cc1` [Compound 15j, N-(3-Methyl-5-(p-toyl)thiazol-2(3H)-ylidene)benzamide]: 112.6% and > 25 µM.
As to `COc1ccc(C(=O)N=c2scc(-c3cc(OC)c(OC)c(OC)c3)n2C)cc1` [Compound 15k, 4-Methoxy-N-(3-methyl-4-(3,4,5-trimethoxyphenyl)thiazol-2(3H)-ylidene)benzamide], the “Cytotoxicity (Survival at 1 μM)” value in data set [2] is recorded as 105.6%. Also, in data set [3], the IC50 came to 8 µM.
The matching figures for `COc1cc(-c2csc(=NC(=O)c3ccc(Cl)cc3)n2C)cc(OC)c1OC` [Compound 15l, 4-Chloro-N-(3-methyl-4-(3,4,5-trimethoxyphenyl)thiazol-2(3H)-ylidene)benzamide]: 77.6% and 0.758 µM.
Regarding `COc1cccc(C(=O)N=c2scc(-c3cc(OC)c(OC)c(OC)c3)n2C)c1` [Compound 15m, 3-Methoxy-N-(3-methyl-4-(3,4,5-trimethoxyphenyl)thiazol-2(3H)-ylidene)benzamide], in data set [2], the “Cytotoxicity (Survival at 1 μM)” value worked out at 103.5%. Further, the IC50 in data set [3] is > 50 µM.
Consider `Cn1c(C2CC2)csc1=NC(=O)c1ccccc1` [Compound 15n, N-(4-Cyclopropyl-3-methylthiazol-2(3H)-ylidene)benzamide], for which, in data set [2], the “Cytotoxicity (Survival at 1 μM)” value came to 90.7%. Besides, in data set [3], the IC50 amounted to 0.104 µM.
Turning to `COc1cc(C(=O)/N=c2/scc(-c3cc(OC)c(OC)c(OC)c3)n2C)cc(OC)c1OC` [Compound 15o, 3,4,5-Trimethoxy-N-(3-methyl-4-(3,4,5-trimethoxyphenyl)thiazol-2(3H)-ylidene) benzamide], in data set [2], the “Cytotoxicity (Survival at 1 μM)” value was found to be 81.5%. Besides, the IC50 in data set [3] was 1.96 µM.
In the case of `CN(C(=O)c1ccccc1)c1nc(-c2ccccc2Cl)cs1` [Compound 16a, N-(4-(2-Chlorophenyl)thiazol-2-yl)-N-methylbenzamide], in data set [2], the “Cytotoxicity (Survival at 1 μM)” value came out at 88.9%. The IC50 in data set [3] worked out at 0.0416 µM.
`CN(C(=O)c1ccccc1)c1nc(-c2cccc(Br)c2)cs1` [Compound 16b, N-(4-(3-Bromophenyl)thiazol-2-yl)-N-methylbenzamide]: the “Cytotoxicity (Survival at 1 μM)” value in data set [2] was found to be 104.4%. Further, the IC50 in data set [3] amounted to 0.437 µM.
With `CN(C(=O)c1ccccc1)c1nc(-c2ccc(Br)cc2)cs1` [Compound 16c, N-(4-(4-Bromophenyl)thiazol-2-yl)-N-methylbenzamide], the “Cytotoxicity (Survival at 1 μM)” value in data set [2] is 65.4%. The IC50 in data set [3] was determined as 0.317 µM.
Take `COc1cc(-c2csc(N(C)C(=O)c3ccccc3)n2)cc(OC)c1OC` [Compound 16d, N-Methyl-N-(4-(3,4,5-trimethoxyphenyl)thiazol-2-yl)benzamide]: in data set [2], the “Cytotoxicity (Survival at 1 μM)” value stood at 96.4%. Further, the IC50 in data set [3] stood at 10 µM.
With `Cc1sc(N(C)C(=O)c2ccccc2)nc1-c1ccc(F)cc1` [Compound 16e, N-(4-(4-Fluorophenyl)-5-methylthiazol-2-yl)-N-methylbenzamide], in data set [2], the “Cytotoxicity (Survival at 1 μM)” value is 107.6%. Also, the IC50 in data set [3] came to 1.62 µM.
In the case of `Cc1ccc(-c2cnc(N(C)C(=O)c3ccccc3)s2)cc1` [Compound 16f, N-Methyl-N-(5-(p-tolyl)thiazol-2-yl)benzamide], the “Cytotoxicity (Survival at 1 μM)” value in data set [2] stood at 59.3%. Besides, the IC50 in data set [3] is 1.09 µM.
With `COc1ccc(C(=O)N(C)c2nc(-c3cc(OC)c(OC)c(OC)c3)cs2)cc1` [Compound 16g, 4-Methoxy-N-methyl-N-(4-(3,4,5-trimethoxyphenyl)thiazol-2-yl)benzamide], the “Cytotoxicity (Survival at 1 μM)” value in data set [2] is on record as 100.0%. Moreover, the IC50 in data set [3] turned out to be 0.312 µM.
Consider `COc1ccc(C(=O)N(C)c2nc(-c3cc(OC)c(OC)c(OC)c3)cs2)cc1OC` [Compound 16h, 3,4-Dimethoxy-N-methyl-N-(4-(3,4,5-trimethoxyphenyl)thiazol-2-yl)benzamide], for which the “Cytotoxicity (Survival at 1 μM)” value in data set [2] came out at 101.9%. Also, in data set [3], the IC50 was > 25 µM.
In the same order, the values of `COc1ccc(C(=O)N(C)c2nc(-c3cc(OC)c(OC)c(OC)c3)cs2)c(OC)c1` [Compound 16i, 2,4-Dimethoxy-N-methyl-N-(4-(3,4,5-trimethoxyphenyl)thiazol-2-yl)benzamide] are 118.5% and 5.04 µM.
Consider `COc1cc(C(=O)N(C)c2nc(-c3cc(OC)c(OC)c(OC)c3)cs2)cc(OC)c1OC` [Compound 16j, 3,4,5-Trimethoxy-N-methyl-N-(4-(3,4,5-trimethoxyphenyl)thiazol-2-yl)benzamide], for which, in data set [2], the “Cytotoxicity (Survival at 1 μM)” value worked out at 114.8%. Also, in data set [3], the IC50 worked out at 0.47 µM.
With `COc1cc(-c2csc(N(C)C(=O)c3cccc(OC)c3OC)n2)cc(OC)c1OC` [Compound 16k, 2,3-Dimethoxy-N-methyl-N-(4-(3,4,5-trimethoxyphenyl)thiazol-2-yl)benzamide], the “Cytotoxicity (Survival at 1 μM)” value in data set [2] is 117.6%. In addition, in data set [3], the IC50 was determined as 0.108 µM.
In the case of `COc1ccccc1C(=O)N(C)c1nc(-c2cc(OC)c(OC)c(OC)c2)cs1` [Compound 16l, 2-Methoxy-N-methyl-N-(4-(3,4,5-trimethoxyphenyl)thiazol-2-yl)benzamide], the “Cytotoxicity (Survival at 1 μM)” value in data set [2] was 109.3%. The IC50 in data set [3] is > 25 µM.
In the same order, the values of `COc1cccc(C(=O)N(C)c2nc(-c3cc(OC)c(OC)c(OC)c3)cs2)c1` [Compound 16m, 3-Methoxy-N-methyl-N-(4-(3,4,5-trimethoxyphenyl)thiazol-2-yl)benzamide] are 88.9% and 0.646 µM.

For the origin of these results see US9650369B2, “Anti-migration and anti-invasion thiazole analogs for treatment of cellular proliferative disease” (XAVIER UNIVERSITY OF LOUISIANA, priority 2012, dated 2017).
